Read-outs that look alike come from different tables or passages of the source.

For series [1], the system named is Adenovirus 5 (AdV5). As to the kind of experiment: Cytopathic effects (CPE) reduction assay, AdV5 in HFF cells, 384-well. Type of series: cell-based, human adenovirus. To be noted: for SI: CC50/EC50, AdV5.
The nature of series [2]: Cytotoxicity, CellTiter-Glo cell viability assay in HFF cells. The conditions noted are these: human. As for the experimental part:
(§1) Human foreskin tissue was obtained from the University of Alabama at Birmingham tissue procurement facility with approval from the Institutional Review Board. The tissue was stored at 4° C. in cell culture medium consisting of minimum essential media (MEM) with Earle's salts supplemented with 10% fetal bovine serum (FBS; HyClone, Inc., Logan, Utah) and standard concentration of L-glutamine, amphotericin B (Fungizone), and vancomycin. The tissue was then placed in a phosphate-buffered saline solution, minced, and rinsed to remove the red blood cells. Tissue fragments were then resuspended in a trypsin-EDTA solution and incubated at 37° C. to disperse the cells, which were then collected by centrifugation. Cell pellets were then resuspended in 4 ml culture medium, placed in a 25-cm^2 tissue culture flask, and incubated at 37° C. for 24 h. The culture medium was then replaced with fresh medium and condition of the cells was monitored daily until a confluent cell monolayer was formed. The HFF cells were then expanded through serial passages in standard growth medium of MEM with Earle's salts supplemented with 10% FBS, L-glutamine, penicillin, and gentamicin. Each lot of cells was confirmed to be free of mycoplasma infection and routinely passaged or used for assays at or before passage 10.
(§2) Antiviral and cytotoxicity data were obtained in a series of three to five separate experiments for each virus to provide an accurate estimate of antiviral activity and statistical data. Each assay included positive and negative control compounds as well as infected and uninfected controls to ensure the integrity of the experiment.
(§3) The CPE reduction assays were performed in monolayers of human foreskin fibroblast (HFF) cells (5000/well) in 384-well plates in assay media consisting of MEM with Earle's salts, 2% FBS and standard concentrations of L-glutamine, penicillin and gentamycin. 5000 cells were seeded in 384-well microtiter plates and incubated at 37° C. in a humidified 5% CO2 incubator for 24 hours to allow for formation of confluent monolayers.
(§4) Cell monolayers were infected at a multiplicity of infection (MOI) of approximately 0.005 PFU/cell with virus strains including AdV5. […] Cytopathology was determined by the addition of CellTiter-Glo® reagent (Promega, Madison, Wis.). Concentrations of antiviral test compounds sufficient to reduce CPE by 50% (EC50) were interpolated from the experimental data using standard methods in Microsoft® Excel.

Series [3] concerns human foreskin fibroblast (HFF) cells. Described as above. As for the experimental part: as §1, §2, §3, §4
The test system of series [4] is Human AdV6. Nature of the series: High dose filociclovir against intravenously administered AdV6 in immunosuppressed hamsters (Example 5). The conditions noted are these: 5 days post challenge, CDV 20 mg/kg 3 times weekly. As for the experimental part: Four dose levels were tested: 10, 30, 60, and 100 mg/kg p.o. q.d. The highest dose was determined based on rat toxicology data.
All hamsters were immunosuppressed using cyclophosphamide (CP). CP was administered intraperitoneally at a dose of 140 mg/kg, and then twice weekly at a dose of 100 mg/kg.
Filociclovir, in powdered form, was suspended in 0.4% carboxymethyl cellulose (Sigma C5678) at 1, 3, 6, and 10 mg/ml and sonicated to visual homogeneity and aliquots stored at 4° C. Aliquots were allowed to equilibrate to room temperature before dosing. Hamsters weighing approximately 100 g were dosed with a 1 ml volume of the appropriate suspension for the 10, 30, 60, and 100 mg/kg dose levels. References to “vehicle” refers to 0.4% carboxymethyl cellulose
The hamsters were divided into 8 groups, 15 hamsters/group, (with the exception of Group 2, which had only 5 hamsters; see Table 3), immunosuppressed, and then injected i.v. with vehicle (Groups 1-2) or 2×10^10 PFU/kg of AdV6 (Groups […]). Groups 1 and 3 received drug vehicle (p.o. q.d.), Group 4 received 10 mg/kg filociclovir (p.o. q.d.), Group 5 received 30 mg/kg filociclovir (p.o. q.d.), Group 6 received 60 mg/kg filociclovir (p.o. q.d.), Groups 2 and 7 received 100 mg/kg filociclovir (p.o. q.d.), and Group 8 received cidofovir (20 mg/kg, 3 times weekly). For all groups, drug administration started 1 day before challenge, and continued according to the schedule above for the duration of the study.
The body weights and any signs of morbidity of the animals were recorded daily. At 5 days post challenge, 5 hamsters (designated at the start of the experiment) from each group (with the exception of Group 2) were sacrificed, and gross pathological observation was performed. Serum and liver samples were collected and the virus burden in liver was determined by a TCID50 assay, and the serum was analyzed for transaminase levels. The remaining 10 hamsters were sacrificed at 14 days post challenge. Hamsters that became visually moribund before Day 14 were sacrificed as needed. In addition to the hamsters observed to be moribund, all hamsters that lost more than 20% of their original body weight were also sacrificed. For the hamsters sacrificed at the conclusion of the experiment and those sacrificed as moribund, serum and liver tissues were collected and banked for possible determination of serum transaminase levels and virus burden in the liver. Liver tissue was preserved in formalin for possible histopathological examination.

Series [5] has as its system Human AdV6. As to the kind of experiment: Low dose filociclovir against intravenously administered AdV6 in immunosuppressed hamsters (Example 6). Here is the method:
Three dose levels were tested: 1, 3, and 10 mg/kg p.o. q.d.
All hamsters were immunosuppressed using cyclophosphamide (CP) administered intraperitoneally at a dose of 140 mg/kg, and then twice weekly at a dose of 100 mg/kg. Filociclovir in powdered form was suspended in 0.4% carboxymethyl cellulose (Sigma C5678) at 0.1, 0.3, and 1.0 mg/ml and sonicated to visual homogeneity. Filociclovir was made up once weekly, aliquoted into daily portions, and stored at 4° C. Aliquots were allowed to equilibrate to room temperature before dosing.
Hamsters were distributed into 7 groups, 15 hamsters/group (see Table 4), immunosuppressed as described above, and injected i.v. with vehicle (Groups 1-2) or 4×10^10 PFU/kg of AdV6 (Groups 3-7). Groups 1 and 3 received drug vehicle (p.o. q.d.), Groups 2 and 6 received 10 mg/kg filociclovir (p.o. q.d.), Group 4 received 3 mg/kg filociclovir (p.o. q.d.), Group 5 received 1 mg/kg filociclovir (p.o. q.d.), and Group 7 received cidofovir (one dose of 37 mg/kg, followed by 20 mg/kg doses 3 times weekly). For all groups, drug administration started 1 day before challenge, and continued according to the schedule above for the duration of the study.
The body weights and any signs of morbidity of the animals were monitored and recorded daily. At 5 days post challenge, 5 hamsters (designated at the start of the experiment) from each group were sacrificed, and gross pathological observation was performed. Serum and liver were collected and virus burden in liver was determined by TCID50 assay and the serum was analyzed for transaminase levels. The remaining 10 hamsters were sacrificed at 14 days post challenge. Hamsters that became moribund before Day 14 were sacrificed as needed. In addition to the animals judged moribund by observation, we sacrificed all hamsters that lost more than 20% of their original body weight. For all animals, liver tissue was preserved in formalin for histopathological examination.

The test system of series [6] is AdV5. To be noted: background, Kinchington et al 2005 cited; read-out: IC50 against AdV5; cited from earlier work.
[7] abbreviates: Human mastadenovirus C, AdV5, HFF cells, 384 well CPE, average and SD from five independent experiments, read-out: EC50.
The mark [8] stands for this setting: human foreskin fibroblast (HFF) cell monolayers, CC50, HFF cells, run with AdV5 assay, average and SD from five independent experiments.
The mark [9] stands for this setting: AdV5, HFF cells, 384 well CPE, average and SD from five independent experiments, read-out: EC50.
The mark [10] stands for this setting: HFF cells, run with AdV5 assay, average and SD from five independent experiments.

On to `Nc1nc2c(ncn2COCCO)c(=O)[nH]1` [ACV, acyclovir], for which, in series [1], the SI worked out at 1.0. Also, the EC50 in series [1] (setting [7]) was greater than 100 µM. In series [2] (setting [8]), this compound showed a cytotoxic concentration (CC50) greater than 100 µM.
In the case of `OC[C@H]1O[C@@H](n2c(Br)nc3cc(Cl)c(Cl)cc32)[C@H](O)[C@@H]1O` [BDCRB, bromodichlororibobenzimidazole], the EC50 in series [1] (setting [9]) worked out at 70 ± 39 µM. Besides, in series [1], the SI turned out to be 1.3. In series [3] (setting [10]), this compound yielded a CC50 of 91 ± 13 µM.
As to `Nc1ccn(C[C@@H](CO)OCP(=O)(O)O)c(=O)n1` [CDV, cidofovir, reference compound], in series [4] (filociclovir p.o. q.d. groups), the “animals with elevated serum transaminase levels (ALT)” value is reported as “none”. Besides, the “virus burden in the liver” value in series [4] (TCID50) is given as “very low to nonquantifiable levels”. In addition, the EC50 in series [1] (Human mastadenovirus C, HFF) turned out to be 4 ± 2 µM. For the same compound, the “AdV6-induced liver damage, serum transaminase (ALT)” value in series [5] (CDV, 5 days post challenge) was “completely prevented AdV6-induced liver pathology”. In series [5] (CDV, 5 days post challenge, TCID50), the “AdV6 replication in the liver” value is reported as “completely prevented AdV6 replication in the liver”. Besides, the body weight loss entry in series [5] (cidofovir 37 mg/kg once, then 20 mg/kg 3 times weekly) is “completely reversed body weight loss”. In series [2] (setting [8]), this compound came in with a CC50 of 97 ± 4 µM.
In the case of `CCCCCCCCCCCCCCCCOCCCOP(=O)(O)CO[C@H](CO)Cn1ccc(N)nc1=O` [CMX001, brincidofovir], the SI in series [1] was found to be 27.7. In addition, the EC50 in series [1] (setting [7]) was less than 0.03 µM. The same compound had a CC50 in series [2] (setting [8]) of 0.83 ± 0.7 µM.
Consider `O=c1[nH]c(=O)n([C@@H]2O[C@H](CO)[C@@H](O)[C@@H]2F)cc1I` [FIAU], for which the EC50 in series [1] (setting [9]) is greater than 100 µM. This compound yielded an SI in series [1] of 1.0. In series [3], this compound yielded a CC50 greater than 100 µM.
Consider `Nc1nc(O)c2ncn(COC(CO)CO)c2n1` [GCV, ganciclovir], for which, in series [1] (Human mastadenovirus C, HFF), the 50% effective concentration (EC50) turned out to be 66 ± 15.1 µM. The half-inhibitory concentration (IC50) is 66 µM in series [1] (Human mastadenovirus C, HFF, read-out: IC50 value against AdV5) and 66 ± 15.1 µM in series [6]. The CC50 in series [2] (setting [8]) is greater than 100 µM.
In series [1], `O=c1[nH]c(=O)n([C@H]2C[C@H](O)[C@@H](CO)O2)cc1I` [IDU, idoxuridine] registered an SI of 1.0. Besides, the EC50 in series [1] (setting [7]) is greater than 100 µM. In addition, in series [2] (setting [8]), the CC50 is greater than 100 µM.
`O=c1[nH]c(=O)n([C@@H]2CO[C@H](CO)O2)cc1/C=C/Br` [L-BHDU, L-Bromovinyl-Hydroxymethyl-Dioxolan Uracil]: the half-maximal effective concentration (EC50) in series [1] (setting [9]) is greater than 100 µM. In series [1], this compound showed an SI of 1.0. Besides, the CC50 in series [3] is greater than 100 µM.
With `Cc1cn([C@H]2C[C@H](O)[C@]3(CO)C[C@H]23)c(=O)[nH]c1=O` [N-MCT, N-methanocarbathymidine], the EC50 in series [1] (setting [9]) amounted to 57 ± 47 µM. For the same compound, the SI in series [1] stood at 1.3. In addition, the midpoint of cytotoxicity in series [3] (setting [10]), the CC50, lay at 72 ± 33 µM.
Compound `Nc1nc2c(ncn2CCC(CO)CO)c(=O)[nH]1` [PCV, penciclovir] gave an SI in series [1] of 1.0. Also, the EC50 in series [1] (setting [7]) was greater than 100 µM. The compound further displayed a CC50 in series [2] (setting [8]) greater than 100 µM.
Take `O=C(O)P(=O)(O)O` [PFA, foscarnet]: the SI in series [1] came to 1.0. For the same compound, the concentration for a half-maximal effect (EC50) in series [1] (setting [7]) was greater than 1000 µM. Besides, the half-maximal cytotoxic concentration (CC50) in series [2] (setting [8]) is greater than 1000 µM.
As for `Nc1ncnc2c1ncn2CCOCP(=O)(O)O` [PMEA, adefovir], the SI in series [1] turned out to be 2.1. For the same compound, the concentration for a half-maximal effect (EC50) in series [1] (setting [7]) stood at 48 ± 8 µM. The compound further had a CC50 in series [2] greater than 100 µM.

The values above are taken from US20220168310A1, “INHIBITION OF ADENOVIRUS WITH FILOCICLOVIR” (Microbiotix, Inc., priority 2019, published 2022).
